Measured values published in ChEMBL document CHEMBL4219170, “Design, synthesis and biological evaluation of anti-pancreatic cancer activity of plinabulin derivatives based on the co-crystal structure” (Bioorg Med Chem, 2018).
Converted amounts (≈) assume the structure as drawn. The source made the active and inactive calls. The rule behind the calls is not given here.

Assays:
[1] = system: BXPC-3; assay: Antiproliferative activity against human BxPC3 cells after 72 hrs by sulforhodamine B assay; type: functional, cell-based; conditions: BXPC-3, 72 h
[2] = Solubility of the compound in water after 24 hrs by HPLC analysis; type: physicochemical
[3] = molecular target: Tubulin (Homo sapiens) (UniProt P68371+Q9H4B7+P0DPH7+P68366+Q13509+Q71U36+P04350+Q3ZCM7+P07437+P68363+Q9BQE3+Q6PEY2+Q13885+Q9BVA1+Q9BUF5); assay: Inhibition of tubulin polymerization (unknown origin) at 5 uM after 1 min in presence of GTP by fluorescence-based assay relative to control; type: protein-complex assay
[4] = species on record: Homo sapiens; assay: Inhibition of beta-tubulin polymerization in human BxPC3 cells at 5 nM after 24 hrs by DAPI staining-based fluorescence microscopic analysis; type: cell-based
[5] = system: BXPC-3; assay: Antiproliferative activity against human BxPC3 cells at 12.5 nM after 72 hrs by MTT assay relative to control; type: functional

SMILES	IC50 [1] [nM]	solubility [2] [µg/mL]	inhibition [3] [%]	inhibition [4]	Activity [5] [%]
CC(C)(C)c1[nH]cnc1/C=c1\[nH]c(=O)/c(=C/c2cccc(C(=O)N3CCCCC3)c2)[nH]c1=O	100	< 0.1			
CC(C)(C)c1[nH]cnc1/C=c1\[nH]c(=O)/c(=C/c2cccc(C(=O)c3ccco3)c2)[nH]c1=O	9.23	< 0.1			
CC(C)(C)c1[nH]cnc1/C=c1\[nH]c(=O)/c(=C/c2cccc(C(=O)c3cccnc3)c2)[nH]c1=O	4.05	< 0.1	28.8		
CC(C)(C)c1[nH]cnc1/C=c1\[nH]c(=O)/c(=C/c2cccc(C(=O)c3cncs3)c2)[nH]c1=O	17.1	< 0.1	19.9		
CN1CCN(C(=O)c2cccc(/C=c3\[nH]c(=O)/c(=C/c4nc[nH]c4C(C)(C)C)[nH]c3=O)c2)CC1	> 500	85.568 (≈ 185 µM)			
CC(C)(C)c1[nH]cnc1/C=c1\[nH]c(=O)/c(=C/c2cccc(C(=O)N3CCCC3)c2)[nH]c1=O	325	0.454 (≈ 1.05 µM)			
O=C(c1cccc(/C=c2\[nH]c(=O)/c(=C/c3ccccn3)[nH]c2=O)c1)N1CCCCC1	> 500	< 0.1			
CC(C)(C)c1[nH]cnc1/C=c1\[nH]c(=O)/c(=C/c2cccc(C(=O)N3CCC3)c2)[nH]c1=O	> 500	4.231 (≈ 10.1 µM)			
CC(C)(C)c1[nH]cnc1/C=c1\[nH]c(=O)/c(=C/c2ccccc2)[nH]c1=O [PLINABULIN]	4.28	< 0.1	18.3	Active	
CC(C)(C)c1[nH]cnc1/C=c1\[nH]c(=O)/c(=C/c2cccc(C(=O)c3ccsc3)c2)[nH]c1=O	1.56	< 0.1	39.3		
CC(C)(C)c1[nH]cnc1/C=c1\[nH]c(=O)/c(=C/c2cccc(C(=O)N3CCOCC3)c2)[nH]c1=O	257	1.79 (≈ 3.98 µM)			
O=C(c1cccc(/C=c2\[nH]c(=O)/c(=C/c3ccccn3)[nH]c2=O)c1)N1CCC1	> 500	0.662 (≈ 1.77 µM)			
O=C(c1ccccc1)c1cccc(/C=c2\[nH]c(=O)/c(=C/c3ccccn3)[nH]c2=O)c1	6.27	< 0.1			85
CC(C)(C)c1[nH]cnc1/C=c1\[nH]c(=O)/c(=C/c2cccc(C(=O)c3ccccn3)c2)[nH]c1=O	7.58	< 0.1	36.6		
CC(C)(C)c1[nH]cnc1/C=c1\[nH]c(=O)/c(=C/c2cccc(C(=O)c3ccncc3)c2)[nH]c1=O	23.8	< 0.1	34.1		
CN1CCN(C(=O)c2cccc(/C=c3\[nH]c(=O)/c(=C/c4ccccn4)[nH]c3=O)c2)CC1	> 500	16.302 (≈ 39 µM)			
CC(C)(C)c1[nH]cnc1/C=c1\[nH]c(=O)/c(=C/c2cccc(C(=O)c3cccs3)c2)[nH]c1=O	1.72	< 0.1	46.4		
CC(C)(C)c1[nH]cnc1/C=c1\[nH]c(=O)/c(=C/c2cccc(C(=O)c3ccccc3)c2)[nH]c1=O		< 0.1			
CC(C)(C)c1[nH]cnc1/C=c1\[nH]c(=O)/c(=C/c2cccc(C(=O)c3ccc[nH]3)c2)[nH]c1=O	> 100				
CC(C)(C)c1[nH]cnc1/C=c1\[nH]c(=O)/c(=C/c2cccc(C(=O)c3cc[nH]c3)c2)[nH]c1=O	> 100				
CC(C)(C)c1[nH]cnc1/C=c1\[nH]c(=O)/c(=C/c2cccc(C(=O)c3ccoc3)c2)[nH]c1=O	9.41	< 0.1			
